Measured values from patent US10444244B2, “Microfluidic array supporting a lipid bilayer assembly” (DUBLIN CITY UNIVERSITY, priority 2014, dated 2019).
One block for each molecule: values may come before it.

Tests used:
[1] = EIS of DOPC bilayer with K+/Na+ ion gradient after Valinomycin incorporation; assay type: physicochemical; details: 20 μM from ethanol solution; cavities Tris KCl, contacting solution Tris NaCl
Protocol: (§1) Gold microcavity electrodes were formed through the method described herein using electrodeposition of gold through a close packed array of polystyrene spheres (2.88 micron in diameter) after which the spheres where removed by sonication in THF for 30 minutes. The gold microcavity array was then modified with mercaptoethanol (ME) by placing the substrate in a 1 mM solution of ME, in ethanol, for 24 hours. Alternatively it is possible to selectively modify the top surface with mercaptonexanol before removal of the spheres and leave the cavities free of surface modification after sphere removal. This latter approach gives even greater reproducibility.
After sonication a DOPC bilayer was formed over the micro-cavities using a combination of Langmuir-Blodgett and vesicle fusion as described above.
Electrochemical impedance spectra (EIS) of this bilayer were measured by placing the array in contact with Tris NaCl. This creates an ion gradient across the lipid bilayer. The bilayer, effectively insulates the pore from the external contacting solution but once Valinomycin is introduced this should cause K+ ions to flow from inside the cavities into the bulk solution (see schematic in FIG. 18). The impedance of the DOPC bilayer was measured in the presence of this ionic gradient. Valinomycin was then introduced into the cell by adding 20 μM from an ethanol solution. […]

[2] = for decrease in resistivity of DOPC bilayer: between 0 and 400 umol drug, PBS buffer pH 7.4 on both sides of the pore
[3] = FLCS/FCS of labelled lipid diffusion in DOPC bilayer over buffer-filled PDMS cavity array after drug addition; assay type: physicochemical; details: for impact on diffusion of the lipophilic BODIPY-HPC probe: PBS pH 7.4, 15 mins incubation, ibuprofen 4-200 μmol, diclofenac 4-800 μmol
Protocol: The lower dye concentration is required for FLCS experiments.
FLCS measurements were recorded over cavities as well as flat PDMS surfaces to obtain the autocorrelation functions for each surface. […] The autocorrelation curves obtained were fit to the 2-dimensional model described in equation 1 to obtain the lateral diffusion co-efficient of the lipids in the bilayer.
where, G(τ) is the autocorrelation function, N is the average number of fluorescent molecules present in the confocal volume, τi is the characteristic residence time, and α is the anomalous parameter which reflects the extent of deviation of diffusion from normal or Brownian motion where α=1, i is the index of the components. The lateral diffusion coefficient, DL, can be obtained as DL=ω^2/4τi. In this equation, ω is the radius of the laser beam used. To determine ω for each excitation, a reference solution of free dye was used for which the diffusion coefficient is known.
The probe is BODIPY labelled DOPE at 1% mol/mol lipid.
Monitoring the diffusion of each probe permitted assessment of interaction of the drug with the membrane and where this interactions occurred; i.e. did it bind to the interface or intercalate in the bilayer? Only a single probe is necessary in most instances, however depending on the sophistication of the FCS instrument two labels can be used in a single two colour experiment or they can be applied in separate experiments to yield detailed insights into the location of the drug at the membrane.

[4] = Electrorelease of CD from cavity to cholesterol containing bilayer, bilayer resistance; assay type: physicochemical
Excerpt: As an example. Mercaptoferrocene was self-assembled only at the inner cavity surface and a blocking thiolated alcohol (mercaptoethanol or mercaptohexanol) was assembled at the top surface of the array, by modification of the top surface of the array prior to release of the templating sphere and then adhering the ferrocene after sphere removal. The ferrocene binds selectively to streptavidin modified beta-cyclodextrin (CD-streptavidin) which is assembled prior to assembly of the DOPC/DOPC biotinylated bilayer. Application of 0.5 V vs Ag/AgCl results in oxidation of the ferrocene, which in the presence of Na+ acquires a permanent positive charge, preventing reassembly of the CD-streptavidin. The released CD-streptavidin diffuses to the bilayer where its streptavidin pendant recognises and binds to biotin. Such electrorelease can be combined with EIS to allow for the detection of interaction of released agent with the bilayer, and/or it can also be combined with spectroscopic methods, such as Raman and fluorescence spectroscopy for further investigation. […] In principle, the quantity of cholesterol removed can be controlled by altering the quantity of CD at the cavity through use of a mixed monolayer

[5] = EIS of DOPC bilayer with K+/H+ gradient after Nigericin incorporation; assay type: physicochemical; details: 20 μM from ethanol solution; cavities 150 mM K+, outside citrate buffer pH 4, H+ 10 mMol
Protocol: as §1
Nigericin is an antiporter of H+ and K+, Herein, the cavities where prefilled with 150 mM K+ before bilayer formation. Citrate buffer (at pH 4) was then added to the electrolyte to supply the system with H+(10 mMol) ions on the outside of the bilayer. The impedance of the DOPC bilayer was measured in the presence of this ionic gradient.

[6] = DOPC bilayer, 2.8 um PDMS pores

Structure (SMILES): CC(C)[C@@H]1NC(=O)[C@H](C)OC(=O)[C@@H](C(C)C)NC(=O)[C@@H](C(C)C)OC(=O)[C@H](C(C)C)NC(=O)[C@H](C)OC(=O)[C@@H](C(C)C)NC(=O)[C@@H](C(C)C)OC(=O)[C@H](C(C)C)NC(=O)[C@H](C)OC(=O)[C@@H](C(C)C)NC(=O)[C@@H](C(C)C)OC1=O [Valinomycin]
change of bilayer resistance after ionophore incorporation [1]: a decrease in the resistance was observed

decrease in resistivity of DOPC bilayer [2]: 65%
diffusion coefficient of Atto-655 labelled DOPE ([3]; 800 μmol diclofenac, DOPC bilayer, PBS pH 7.4, at 0 drug 11.71±0.82): 43.5±8.13 μm^2 s^−1
impact on diffusion of the lipophilic BODIPY-HPC probe [3, 6]: little effect
Structure (SMILES): O=C(O)Cc1ccccc1Nc1c(Cl)cccc1Cl [diclofenac]

Structure (SMILES): OC[C@H]1O[C@@H]2O[C@H]3[C@H](O)[C@@H](O)[C@@H](O[C@H]4[C@H](O)[C@@H](O)[C@@H](O[C@H]5[C@H](O)[C@@H](O)[C@@H](O[C@H]6[C@H](O)[C@@H](O)[C@@H](O[C@H]7[C@H](O)[C@@H](O)[C@@H](O[C@H]8[C@H](O)[C@@H](O)[C@@H](O[C@H]1[C@H](O)[C@H]2O)O[C@@H]8CO)O[C@@H]7CO)O[C@@H]6CO)O[C@@H]5CO)O[C@@H]4CO)O[C@@H]3CO [unlabeled CD, beta-cyclodextrin]
effect of electroreleased agent on cholesterol containing bilayer [4]: removal of cholesterol from the bilayer, reflected in a decrease in resistance of the bilayer film

Structure (SMILES): CO[C@@H]1C[C@@H](C[C@H]2CC[C@H](C)[C@H]([C@@H](C)C(=O)O)O2)O[C@]2(O[C@](C)([C@H]3CC[C@@](C)([C@@H]4O[C@@H]([C@H]5O[C@@](O)(CO)[C@H](C)C[C@@H]5C)C[C@@H]4C)O3)C[C@H]2C)[C@@H]1C [Nigericin]
change of bilayer resistance after ionophore incorporation [5]: a decrease in the resistance was observed

decrease in resistivity of DOPC bilayer [2]: roughly 6%
effect on impedance of the bilayer at equilibrium ([2]; ibuprofen at 4 and then 8 mMol, 2.8 μm gold cavity arrays, PBS pH 7.4, room temperature, ferrocyanide redox probe): decrease in impedance
diffusion coefficient of the ATTO probe (DOPE-ATTO655) ([3]; 100 μmol of ibuprofen, DOPC bilayer, PBS pH 7.4, without drug 10.37±0.72): 12.05±0.6 μm^2 s^−1
impact on diffusion of the lipophilic BODIPY-HPC probe [3, 6]: little impact
membrane lipid diffusion coefficient after exposure of the bilayer ([3]; ibuprofen 4 mMol, DOPC bilayer with 1% mol/mol BODIPY labelled DOPE, 2.8 um PDMS pores, PBS pH 7.4, room temperature, without drug approximately 7): approximately 9.5 μms^−1
Structure (SMILES): CC(C)Cc1ccc(C(C)C(=O)O)cc1 (stereo not drawn) [ibuprofen]
effect on capacitance of the layer ([2]; ibuprofen at 4 and then 8 mMol, 2.8 μm gold cavity arrays, PBS pH 7.4): initially in a decrease followed by a substantial increase in capacitance
